Results published in publication PMC3479967 (Evidence-based Complementary and Alternative Medicine : eCAM, 2012).

Molecular target: T1, UGT1A3 (Homo sapiens, UniProt P35503)
T1 sequence (P35503 29-534): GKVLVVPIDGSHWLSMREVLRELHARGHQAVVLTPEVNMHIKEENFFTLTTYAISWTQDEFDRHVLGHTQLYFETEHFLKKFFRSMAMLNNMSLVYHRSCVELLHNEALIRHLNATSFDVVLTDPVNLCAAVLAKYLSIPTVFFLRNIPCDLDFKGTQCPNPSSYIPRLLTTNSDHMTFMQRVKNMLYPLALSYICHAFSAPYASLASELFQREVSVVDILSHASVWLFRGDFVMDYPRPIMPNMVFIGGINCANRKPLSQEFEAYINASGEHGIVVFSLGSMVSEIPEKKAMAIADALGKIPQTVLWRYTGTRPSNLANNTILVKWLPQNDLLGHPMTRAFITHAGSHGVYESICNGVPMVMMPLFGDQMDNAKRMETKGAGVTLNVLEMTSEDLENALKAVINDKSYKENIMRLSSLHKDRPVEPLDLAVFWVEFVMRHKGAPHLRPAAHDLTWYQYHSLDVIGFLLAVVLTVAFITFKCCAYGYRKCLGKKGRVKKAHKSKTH
Experiment: Inhibition of recombinant UGT1A3 activity (4-MU glucuronidation)
Protocol: A panel of recombinant human UGT supersomes (UGT1A1, UGT1A3, UGT1A4, UGT1A6, UGT1A7, UGT1A8, UGT1A9, UGT1A10, UGT2B4, UGT2B7, UGT2B15, and UGT2B17) expressed in baculovirus-infected insect cells were purchased from BD Gentest Corp. (Woburn, MA, USA).
4-MU, a nonselective substrate of UGTs, was used as probe substrate for all UGTs except UGT1A4. Incubations with each individual enzyme were conducted using conditions previously described. There was a 5 min preincubation step at 37°C before the reaction was started by addition of UDPGA. The incubation mixtures were then centrifuged at 20,500 ×g for 15 min to obtain the supernatant. Aliquots (20 μL) were then analyzed by HPLC. The HPLC system (SHIMADZU, Kyoto, Japan) consisted of an SCL-10A system controller, two LC-10AT pumps, a SIL-10A auto injector, and a SPD-10AVP UV detector. […] The mobile phase consisted of 10 mM KH2PO4, pH 2.7 (A) and acetonitrile (B). The following gradient was applied at a flow rate of 1 mL/min: 0–4 min 80% A and 20% B, 4.1–8 min 50% A and 50% B, 8.1–12 min, 30% A and 70% B. All experiments were performed in two independent experiments in duplicate.
A typical incubation mixture contained recombinant human UGTs, 5 mM MgCl2, 5 mM UDPGA, 50 μg/mg protein alamethicin, 50 mM Tris-HCl buffer (pH 7.4), and various probe substrates of UGTs in the absence or presence of different concentrations of inhibitors. […] The final concentration of DMSO in the incubation system was 1% (v/v). […] Known UGT inhibitors were used as positive controls: diclofenac for UGT1A1, UGT1A6, UGT1A7, and UGT1A9; androsterone for UGT1A3, UGT2B7, and UGT2B15, phenylbutazone for UGT1A8 and UGT1A10, and hecogenin for UGT1A4, respectively. There is no positive control reported available for UGT2B4 and UGT2B17. The negative controls are the incubation without UDPGA. […] The final concentration of DMSO in the incubation system was 1% (v/v). […] There was a 5 min preincubation step at 37°C before the reaction was started by the addition of UDPGA. Incubation times were 120 min for UGT1A1, UGT1A10, UGT2B4, UGT2B15, and UGT2B17, 75 min for UGT1A3, and 30 min for UGT1A4, UGT1A6, UGT1A7, UGT1A8, and UGT1A9. The reactions were quenched by adding 100 μL acetonitrile and internal standard. The incubation mixtures were then centrifuged at 20,500 ×g for 15 min to obtain the supernatant. An aliquot of the supernatant was used for HPLC analysis as described above. All experiments were performed in two independent experiments in duplicate.
Inhibition data from experiments were graphically represented by Dixon plots. K i values were calculated by nonlinear regression using the equations for competitive inhibition (1), noncompetitive inhibition (2), or mixed inhibition (3), [22] […] The type of inhibition was determined from the enzyme inhibition models. […]

Compound | IC50 [µM] | Ki [µM]
COc1ccc(-c2oc3c(CC=C(C)C)c(O)cc(O)c3c(=O)c2O)cc1 [Icaritin] | > 100 | –
COc1ccc(-c2oc3c(CC=C(C)C)c(O[C@@H]4O[C@H](CO)[C@@H](O)[C@H](O)[C@H]4O)cc(O)c3c(=O)c2O)cc1 [Icariside I] | > 100 | –
COc1ccc(-c2oc3c(CC=C(C)C)c(O[C@@H]4O[C@H](CO)[C@@H](O)[C@H](O)[C@H]4O)cc(O)c3c(=O)c2O[C@@H]2O[C@@H](C)[C@H](O)[C@@H](O)[C@H]2O)cc1 [Icariin] | 12.4 ± 0.1 | 8 ± 1.4
